Reference: patent publication US6630478B2, “Methods for treatment of drug-induced peripheral neuropathy” (NeoTherapeutics, Inc., priority 2000, dated 2003)
Entries after “also recorded” stand apart in the source; their conditions may differ.

Assays:
[1] = Vincristine intoxication in rats, body weight; type: in vivo, Dark Agouti rats; details: repetitive dosing IP, days 11-19 and 22-31; FIG. 2
Description: Animals received vincristine 0.15 mg/ml (IP) per day with the following timing: 5 days of intoxication followed with 2 days without vincristine injection and a new period of 5 days of intox followed with 2 days no intoxication and 2 other days of intoxication with vincristine followed by a 3 week recovery period. The test compound was administered daily from the first day of vincristine injection to the end of the experiments Subjects used were 65 female Dark Agouti rats (200-250 g) (n=13 per group). Five groups were used: (1) a vehicle control group; […] (3) a […]-082 3 mg/kg IP group; (4) a […]-082 10 mg/kg IP group; and (5) a […]-082 30 mg/kg IP group. Behavioral Measurements. The general health and weight of animals were checked every day. Sensorimotor tests were performed twice a week during 6 week study, starting one week before beginning of intoxication (baseline). Drug Administration. The test compound was administered daily by the i.p. route from the first day of intoxication with the vincristine to the end of the experiments.

[2] = system: dorsal root ganglion neurons; experiment: Cisplatin toxicity in cultured dorsal root ganglion neurons, survival rate by acid phosphatase activity; type: cell-based, rat
Description: The dorsal root ganglion neurons were obtained from rat fetuses (Wistar rats; E15; Elevage Janvier, Le Genest St Isle). They were dissected and incubated in trypsin 1× (Gibco; Life Technologies, Cergy-Pontoise, France) for 30 min at 37° C. The reaction was stopped by addition of free Hanks balanced salt solution containing calcium and magnesium; (HBSS^+; Gibco) added with 10% of fetal bovine serum (FBS; Gibco) and 0.5 mg/ml DNAse I (Boehringer Mannheim, Meylan, France). The suspension was triturated with a 10-ml pipette and using a needle seringe. After centrifugation, the dissociated cells were resuspended in DMEM containing 10% FBS, 2% of chick embryos extract (Gibco), 1% antibiotics (Gibco) and NGF (Tebu, Le Perray en Yvelines, France) 3 ng/ml final.
Viable cells were counted and seeded at ±50,000 cells /well in 96 well-plates (Nunclon, Life Technologies) coated with poly-L-lysine (0.01 mg/ml, Sigma). Cells were maintained in a humidified incubator at 37° C. in 5% CO2-95% air atmosphere.
After 24 h, the culture medium was completed with anti-mitotic compounds (5-fluoro-5′-deoxyuridine and cytosine β-D-arabinofuranoside) and uridine all 10^−5M final. This treatment is aimed at eliminating contaminating fibroblasts and inhibiting the proliferation of Schwann cells.
Cultures were rinsed 48 hrs later (medium without any growth factors) and medium was replaced with fresh medium (200 μl /well) containing cisplatin (3.5 ng/ml; Sigma) added or not with the reference or test compounds.
After 48 h of intoxication, survival rates were measured using an acid phosphatase enzymatic activity assay.
Acid phosphatase activity was measured according to a previously described method (Ueda et al.; 1994). After removal of the culture medium, wells were rinsed twice with PBS (Life Technologies) and incubated with 100 μl of buffer containing 0.1 M sodium acetate (pH5.5), 0.1% Triton X100 (Sigma) and 10 mM p-nitrophenyl phosphate (Sigma) 1 h at 37° C./5% CO2. Reaction was stopped by addition of 10 μl of 1N NaOH (LPCR, Strasbourg, France). Enzyme activity was measured at 405 nm in a microplate reader (Labsystem, France).
Acid phosphatase activity is proportional to the amount of living cells. The results were expressed as percentage O.D. as compared to control conditions (same rinsing and medium replacements, but no intoxication and no treatment with either NGF, riluzol or the test compounds).

Caudal nerve = experiment: Vincristine-induced neuropathy, sensitive nerve conduction velocity (SNCV); type: in vivo, Dark Agouti rats
Description: (§1) Animals received vincristine 0.15 mg/ml (IP) per day with the following timing: 5 days of intoxication followed with 2 days without vincristine injection and a new period of 5 days of intox followed with 2 days no intoxication and 2 other days of intoxication with vincristine followed by a 3 week recovery period. The test compound was administered daily from the first day of vincristine injection to the end of the experiments
(§2) Subjects used were 65 female Dark Agouti rats (200-250 g) (n=13 per group). Five groups were used: (1) a vehicle control group; (2) a vincristine-vehicle group;: (3) a vicristine+AIT-082 3 mg/kg IP group; (4) a vicristine+AIT-082 10 mg/kg IP group; and (5) a vicristine+AIT-082 30 mg/kg IP group.
(§3) Electrophysiological Measurements. Electrophysiological recordings were performed once a week using a Neuromatic 2000M electromyographical apparatus (Dantec, France). EMG were performed under Ketamine anesthesia (Imalgène 500®, Merieux, France).
(§4) The measured parameters were: the sensitive nerve conduction velocity (SNCV), the amplitude and the latency compound muscle action potential (CMAP).
Sensitive Nerve Conduction Velocity. Skin electrodes were used. Caudal nerve was stimulated with a series of 20 pulses during 0.2 ms at a supramaximal intensity. The mean of 20 stimulations is included for statistical analysis.
Drug Administration. The test compound was administered daily by the i.p. route from the first day of intoxication with the vincristine to the end of the experiments.

[3] = system: gastrocnemius muscle after stimulation of the sciatic nerve; experiment: Vincristine-induced neuropathy, EMG amplitude (compound muscle action potential); type: in vivo, Dark Agouti rats
Description: as §1, §2, §3, §4
Compound Muscle Action Potential and Distal Latency. CPAM was measured in gastrocnemius muscle after stimulation of the sciatic nerve. […] The amplitude (mV) and the latency of the response (ms) are measured. […]

sciatic nerve = experiment: Vincristine-induced neuropathy, morphometric analysis of sciatic nerve; type: in vivo, Dark Agouti rats; details: end of the treatment periods
Description: as §1, §2
Morphometric Analysis. The morphometric analysis was performed on 3 animals per group on sciatic nerve. It includes the measurements of various parameters according to the following procedure: […]
(3) Morphometric analysis: Sections were observed using an optical microscope (Nikon) and morphometric analysis were performed with a semi-automated digital image analysis software (Morphonerf, Alcatel). Per slice, 4 fields were analyzed, the number of myelinated fibers, density of fibers, diameter of fibers, thickness of myelin sheath, surface of myelin sheath and G factor.

BDNF = BDNF content in spinal cord by ELISA; type: in vivo, rat; details: in drinking water for 7 days
Description: In vivo Effects on Expression and Secretion of Nerve Growth Factors: In attempt to further explore the effects of AIT-082 that could be beneficial for chemotherapy-induced neuropathy, additional studies were conducted on dose-related effects on BDNF levels in the spinal cord. In these studies, AIT-082 was administered in drinking water for 7 days and BDNF content was measured by ELISA assay.

[4] = system: peripheral nerve sprouting in the skin; experiment: Peripheral (collateral) nerve sprouting in the skin; type: in vivo; details: systemically administered, skin of adult rats
Description: (§5) The growth of such nerve tissue is evoked and maintained entirely by the increased levels of NGF in adjacent denervated skin.

axonal regeneration = experiment: Axonal regeneration after nerve crush; details: in vivo
Description: (§6) More specifically, as detailed below in the Example, systematically administered AIT-082 closely mimics the effects both of increased levels of endogenous NGF, and of exogenous NGF. […] The growth of such nerve tissue is evoked and maintained entirely by the increased levels of NGF in adjacent denervated skin.

[5] = Induction of hyperalgesia; parameters: species or system adult rats; details: rat, in vivo
Description: as §5

NGF [6] = experiment: Endogenous NGF levels in skin; parameters: species or system adult rats; details: rat, in vivo
Description: as §6

[7] = Clinical trials, safety in patients; type: in vivo; details: over 1400 patients
Description: The objectives of the studies described in this application are to evaluate AIT-082 and related analogues for their potential utility in the treatment of neuropathies associated with oncolytic therapies. The prototypic compound, AIT-082, is currently in Phase 2 clinical trials for Alzheimer's disease (AD) and has been proven safe in over 1400 patients. Its preclinical pharmacological effects include neuroprotection against excitotoxicity, induction of the synthesis and secretion of neurotrophic and pleiotrophic factors, neuroregenerative effects and proliferative effects on neural progenitor cells. The effects of AIT-082 are unlike any product that has been approved or is currently under evaluation for neuropathies associated with oncolytic agents. AIT-082 and its second generation analogues may arrest or retard neurodegenerative processes, promote neuroregeneration and provide symptomatic relief for cancer patients with neuropathies or at high risk of developing neuropathies.

NGF [8] = details: rat astrocyte cultures; cited from earlier work
[9] = system: basic fibroblast growth factor (bFGF); details: rat astrocyte cultures; cited from earlier work
neurotrophin 3 (NT-3) = details: rat astrocyte cultures; cited from earlier work
NGF [10] = details: astrocytes; cited from earlier work
TGF = details: astrocytes; cited from earlier work
S 100 = details: astrocytes; cited from earlier work
[11] = prevention of cisplatin toxicity in DRG cells

## CC[C@]1(O)C[C@H]2CN(CCc3c([nH]c4ccccc34)[C@@](C(=O)OC)(c3cc4c(cc3OC)N(C=O)[C@H]3[C@@](O)(C(=O)OC)[C@H](OC(C)=O)[C@]5(CC)C=CCN6CC[C@]43[C@@H]65)C2)C1 [Vincristine, vincristine]
[1]
  body weight compared to day matched vehicle controls: significant reductions in body weight

## O=C(CCn1cnc2c(=O)[nH]cnc21)Nc1ccc(C(=O)O)cc1 [AIT-082, N-4-carboxyphenyl-3-(6-oxohydropurin-9-yl) propanamide]
[2]; 1 μM, cisplatin intoxication 48 h, FIG. 1
  survival compared to cisplatin alone: significantly increased survival
[2]; doses higher than 1 μM
  effect on survival at higher doses: diminished progressively
[2]; in vitro model, discussion summary
  protection against cisplatin induced neurotoxicity: statistically significant protection
[2]; [11]
  effect compared with 5 ng/ml of NGF: greater effect
  potency relative to riluzole: 10 times
Caudal nerve; day 17 (intoxication phase) and day 31 (recovery phase), 3-30 mg/kg IP
  sensory nerve conduction velocity: significant and dose-related changes
Caudal nerve; discussion summary
  severity of vincristine induced changes in sensory nerve conduction velocity: reduced the severity
Caudal nerve; discussion summary, SNCV and electromyographic responses
  rate of recovery after the termination of vincristine therapy: improved the rate of recovery
[3]; days 17 and 23 (intoxication phase), days 31 and 38 (recovery phase), 3-30 mg/kg IP
  EMG amplitude: significant and dose-related changes
[3]; discussion summary
  severity of vincristine induced changes in electromyographic responses: reduced the severity
Sciatic nerve
  number of myelinated nerve fibers in sciatic nerve biopsies versus vincristine alone: greater numbers of myelinated nerve fibers
BDNF
  BDNF levels in the spinal cord: significant dose-related increases
[4]
  peripheral / collateral nerve sprouting: induce peripheral nerve sprouting; also recorded: induces vigorous collateral sprouting
Axonal regeneration
  axonal regeneration after nerve crush: no effect
[5]
  hyperalgesia: without the induction of hyperalgesia; also recorded: did not induce hyperalgesia
NGF [6]
  endogenous NGF levels in skin: up-regulation
[7]
  safety in patients: proven safe
NGF [8]
  production of NGF mRNA: increases the production of mRNAs
[9]
  production of bFGF mRNA: increases the production of mRNAs
Neurotrophin 3 (NT-3)
  production of NT-3 mRNA: increases the production of mRNAs
NGF [10]
  secretion of NGF into the culture medium: enhanced the secretion
TGF
  secretion of TGF into the culture medium: enhanced the secretion
S 100
  secretion of S 100 into the culture medium: enhanced the secretion

## O=C(CCn1cnc2c(=O)[nH]cnc21)NCCCN1CCCC1=O [AIT-034]
[2]; all concentrations (0.01-100 μM)
  effect on survival: ineffective
